Data: patent US20050032873A1, “3-Amino chroman and 2-amino tetralin derivatives” (Wyeth, priority 2003, published 2005)
Like-named read-outs stand apart in the source and are kept apart here.

Experiments:
serotonin transporter = target: T1, serotonin transporter (Rattus norvegicus, UniProt P31652); test: 5-HT transporter affinity: displacement of 3H-paroxetine from male rat cortical membranes; type: binding; details: displacement of 3H-paroxetine; male rat cortical membranes; read-out: 5-HT Transporter Affinity Ki
T1 construct: displace ^3H-paroxetine from male rat cortical membranes; from tissue; host or cells: male rat cortical membranes
T1 sequence (P31652 whole entry): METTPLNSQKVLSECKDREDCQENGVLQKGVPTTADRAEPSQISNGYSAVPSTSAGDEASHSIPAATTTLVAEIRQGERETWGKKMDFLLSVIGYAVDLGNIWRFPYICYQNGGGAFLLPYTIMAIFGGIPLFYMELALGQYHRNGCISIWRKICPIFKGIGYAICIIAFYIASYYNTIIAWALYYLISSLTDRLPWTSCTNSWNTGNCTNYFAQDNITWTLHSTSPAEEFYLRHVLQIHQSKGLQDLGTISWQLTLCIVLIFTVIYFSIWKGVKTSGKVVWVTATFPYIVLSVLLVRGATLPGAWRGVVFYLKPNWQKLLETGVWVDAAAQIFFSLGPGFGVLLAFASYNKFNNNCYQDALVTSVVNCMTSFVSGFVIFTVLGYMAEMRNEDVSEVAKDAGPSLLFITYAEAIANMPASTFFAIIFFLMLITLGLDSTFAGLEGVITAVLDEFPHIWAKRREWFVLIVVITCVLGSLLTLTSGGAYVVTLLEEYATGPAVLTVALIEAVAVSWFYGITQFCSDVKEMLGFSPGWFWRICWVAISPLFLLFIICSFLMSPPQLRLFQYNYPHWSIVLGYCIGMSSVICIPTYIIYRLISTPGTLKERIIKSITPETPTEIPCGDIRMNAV

[1] = target: T2, cloned human 5-HT1A receptors (Homo sapiens, UniProt P08908); test: 35S-GTPγS binding assay, 5-HT1A function; type: biochemical; details: for IC50: antagonist potency, reversal of 8-OH-DPAT, read-out: 5-HT1A Function GTPγS IC50; for EC50: agonist potency
T2 construct: expressed in transfected cells
T2 sequence (P08908 1-422): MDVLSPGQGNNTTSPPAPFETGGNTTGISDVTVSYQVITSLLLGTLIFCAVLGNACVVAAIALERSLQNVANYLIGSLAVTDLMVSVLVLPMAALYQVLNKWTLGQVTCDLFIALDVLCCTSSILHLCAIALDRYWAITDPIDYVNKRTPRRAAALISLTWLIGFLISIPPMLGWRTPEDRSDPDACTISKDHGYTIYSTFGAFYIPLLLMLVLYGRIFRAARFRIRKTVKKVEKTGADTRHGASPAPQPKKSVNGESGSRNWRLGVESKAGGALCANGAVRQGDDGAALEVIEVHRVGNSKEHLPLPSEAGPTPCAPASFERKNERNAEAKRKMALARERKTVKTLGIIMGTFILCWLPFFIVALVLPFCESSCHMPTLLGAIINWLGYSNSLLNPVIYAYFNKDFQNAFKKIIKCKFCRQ

5-HT1A receptor [2] = target: T3, 5-HT1A receptor (Homo sapiens, UniProt P08908); test: cAMP accumulation assay, 5-HT1A function; type: cell-based; details: for IC50: cells marked IC50 (antagonist), read-out: 5-HT1A Function cAMP IC50; for EC50: cells marked EC50 (agonist)
T3 sequence (P08908 1-422): T2 sequence (P08908 1-422)

5-HT1A receptor [3] = target: T3, 5-HT1A receptor; test: 5-HT1A receptor affinity: displacement of [3H] 8-OH-DPAT; type: binding; design: expressed in transfected cells; details: displacement of [3H] 8-OH-DPAT; CHO cells stably transfected with human 5-HT1A receptors; read-out: 5-HT1A Receptor Affinity Ki
[4] = maximum inhibitory effect, in brackets after IC50, read-out: 5-HT1A Function GTPγS (Imax)
[5] = in brackets after EC50 or IC50, read-out: 5-HT1A Function cAMP (Emax)
[6] = maximum stimulatory effect, in brackets after EC50, read-out: 5-HT1A Function GTPγS (Emax)
[7] = maximum stimulatory effect, in brackets after EC50
[8] = maximum inhibitory effect, in brackets after IC50

| Compound | Ki (serotonin transporter) [nM] | IC50 [1] [nM] | Emax [1, 4] [%] | IC50 (5-HT1A receptor [2]) [nM] | Emax (5-HT1A receptor [2]; [5]) [%] | Ki (5-HT1A receptor [3]) [nM] | EC50 [1] [nM] | Emax [1, 6] [%] | EC50 (5-HT1A receptor [2]) [nM] | 5-HT1A Function GTPγS (Emax) [1, 7] [%] | 5-HT1A Function cAMP (Emax) (5-HT1A receptor [2]; in brackets after EC50 or IC50) [%] | Emax (5-HT1A receptor [2]; read-out: 5-HT1A Function cAMP (Emax), in brackets after EC50 or IC50) [%] | 5-HT1A Function GTPγS (Imax) [1, 8] [%] |
| --- | --- | --- | --- | --- | --- | --- | --- | --- | --- | --- | --- | --- | --- |
| NC(=O)c1ccc(F)c2c1CC(N(CCC(=O)c1c[nH]c3ccc(F)cc13)C1CCC1)CO2 (stereo not shown) [Compound 8, 3-{cyclobutyl[3-(5-fluoro-1H-indol-3-yl)-3-oxopropyl]amino}-8-fluorochromane-5-carboxamide] | 259 | 1380 | 100 | 478 | 0 | 103 |  |  |  |  |  |  |  |
| CCCN(CCc1c[nH]c2ccc(F)cc12)C1CCc2cccc(OC)c2C1 (stereo not shown) [Compound 48, N-[2-(5-fluoro-1H-indol-3-yl)ethyl]-N-(8-methoxy-1,2,3,4-tetrahydronaphthalen-2-yl)-N-propylamine] | 6.5 |  |  |  | 89 | 5.98 | 24 | 93 | 35 |  |  |  |  |
| O=C(NC1CCC1)c1cccc2c1CC(N(CCCc1c[nH]c3c(F)cc(F)cc13)C1CCC1)CO2 (stereo not shown) [Compound 143, N-cyclobutyl-3-{cyclobutyl[3-(5,7-difluoro-1H-indol-3-yl)propyl]amino}chromane-5-carboxamide] | 4.4 |  |  |  | 91 | 31.9 | 1390 | 100 | 523 |  |  |  |  |
| CCCN(CCCc1c[nH]c2ccc(F)cc12)C1CCc2cccc(OC)c2C1 (stereo not shown) [Compound 47, N-[3-(5-fluoro-1H-indol-3-yl)propyl]-N-(8-methoxy-1,2,3,4-tetrahydronaphthalen-2-yl)-N-propylamine] | 2.16 |  |  |  | 91.5 | 4.12 | 10.4 | 100 | 3.5 |  |  |  |  |
| CCCN(CCCc1coc2ccccc12)C1COc2c(F)ccc(C(N)=O)c2C1 (stereo not shown) [Compound 20, 3-[[3-(1-benzofuran-3-yl)propyl](propyl)amino]-8-fluorochromane-5-carboxamide] | 575 |  |  |  | 88 | 0.37 | 35.7 | 84 | 62.2 |  |  |  |  |
| COc1cccc2c(CCCN(CC3CC3)C3COc4c(F)ccc(C(N)=O)c4C3)c[nH]c12 (stereo not shown) [Compound 103, 3-{(cyclopropylmethyl)[3-(7-methoxy-1H-indol-3-yl)propyl]amino}-8-fluorochromane-5-carboxamide] | 976 | 1000 | 95 | 172 | 0 | 3.54 |  |  |  |  |  |  |  |
| COc1cccc2c1CC(N(C)CCCc1c[nH]c3ccc(F)cc13)CO2 (stereo not shown) [Compound 33, N-[3-(5-fluoro-1H-indol-3-yl)propyl]-5-methoxy-N-methylchroman-3-amine] | 6.8 |  |  |  | 91 | 40 | 3.62 | 69 | 95.2 |  |  |  |  |
| CCCN(CCCCc1coc2c(OC)cccc12)C1COc2c(F)ccc(C(N)=O)c2C1 (stereo not shown) [Compound 169, 8-fluoro-3-[[4-(7-methoxy-1-benzofuran-3-yl)butyl](propyl)amino]chromane-5-carboxamide] | 528 | 265 | 100 | 11.3 | 0 | 1.48 |  |  |  |  |  |  |  |
| NC(=O)c1ccc(F)c2c1CC(NCCCc1c[nH]c3ccc(F)cc13)CO2 (stereo not shown) [Compound 1, 8-fluoro-3-{[3-(5-fluoro-1H-indol-3-yl)propyl]amino}chromane-5-carboxamide] | 7 |  |  |  | 79.5 | 212 | 5000 | 100 | 229 |  |  |  |  |
| NC(=O)c1ccc(F)c2c1C[C@@H](N(CC1CC1)CC1CCc3[nH]c4ccc(F)cc4c3C1)CO2 (single isomer, unassigned; (-)) [Compound 178a] | 347 | 8400 | 100 | 1260 | 0 | 117 |  |  |  |  |  |  |  |
| [3-(5-fluoro-1H-indol-3-yl)-propyl]-((3S)-5-methoxychroman-3-yl)propylamine [Compound 25] | 16.5 |  |  |  |  | 24.3 | 155 |  | 1.06 | 88 | 93.5 |  |  |
| [3-(5-fluoro-1H-indol-3-yl)-propyl]-((3R)-5-methoxychroman-3-yl)propylamine [Compound 24] | 9.75 |  |  |  |  | 8.87 | 48.3 |  | 7.02 | 91.7 | 88.5 |  |  |
| CCCNC(=O)c1ccc(F)c2c1CC(N(CCCc1c[nH]c3ccc(F)cc13)C1CCC1)CO2 (stereo not shown) [Compound 61, 3-{cyclobutyl[3-(5-fluoro-1H-indol-3-yl)propyl]amino}-8-fluoro-N-propylchromane-5-carboxamide] | 2.4 | 800 |  | 593 |  | 195 |  |  |  |  |  | 0 |  |
| NC(=O)c1cccc2c1CC(N(CCCc1c[nH]c3ccc(F)cc13)C1CCC1)CO2 (single isomer, unassigned; (-)) [Compound 134a, (−)-3-{cyclobutyl[3-(5-fluoro-1H-indol-3-yl)propyl]amino}chromane-5-carboxamide] | 2.75 | 191 | 60 |  |  | 0.66 | 66 |  | 3.87 | 30 | 89 |  |  |
| CCN(CC1CCc2[nH]c3ccc(F)cc3c2C1)[C@H]1COc2c(F)ccc(C(N)=O)c2C1 (single isomer, unassigned; (+)) [Compound 176b] | 165 | 827 |  | 669 |  | 24.6 |  |  |  |  | 0 |  | 88 |
| CCCN(C(C)CCc1c[nH]c2ccc(C#N)cc12)C1COc2c(F)ccc(C(N)=O)c2C1 (single isomer, unassigned) [Compound 13c, 3-[[3-(5-cyano-1H-indol-3-yl)-1-methylpropyl](propyl)amino]-8-fluoro-3,4-dihydro-2H-chromene-5-carboxamide] | 118 | 2520 |  | 316 |  | 119 |  |  |  |  | 0 |  | 92 |
| CCCN(CCCc1c[nH]c2c(OC)cccc12)C1COc2c(F)ccc(C(N)=O)c2C1 (stereo not shown) [Compound 100, 8-fluoro-3-[[3-(7-methoxy-1H-indol-3-yl)propyl](propyl)amino]chromane-5-carboxamide] | 141 |  |  |  | 87 | 3.85 | 67.6 | 100 | 61.5 |  |  |  |  |
| COC(=O)c1ccc(F)c2c1CC(NCCCCc1c[nH]c3ccc(F)cc13)CO2 (stereo not shown) [Compound 57, Methyl 8-fluoro-3-{[4-(5-fluoro-1H-indol-3-yl)butyl]amino}chromane-5-carboxylate] | 4.69 |  |  |  | 91.5 | 14.1 | 247 | 89 | 87.1 |  |  |  |  |
| NC(=O)c1ccc(F)c2c1C[C@@H](NCC1CCc3[nH]c4ccc(F)cc4c3C1)CO2 (single isomer, unassigned; (+)) [Compound 175b] | 47.6 | 174 |  | 4130 |  | 31.4 |  |  |  |  | 0 |  | 55 |
